Several values for one entry are separate records, joined by “and”; a condition that tells them apart may be missing. Equal values may be shown once.
Tests used:
QR2 = biological target: T1, QR2 (Mesocricetus auratus, UniProt A0ABM2YAB8); experiment: biochemical; conditions: for inhibition at 10 µM: read-out: QR2 percentage of inhibition (in brackets)
T1 sequence (A0ABM2YAB8 1-231): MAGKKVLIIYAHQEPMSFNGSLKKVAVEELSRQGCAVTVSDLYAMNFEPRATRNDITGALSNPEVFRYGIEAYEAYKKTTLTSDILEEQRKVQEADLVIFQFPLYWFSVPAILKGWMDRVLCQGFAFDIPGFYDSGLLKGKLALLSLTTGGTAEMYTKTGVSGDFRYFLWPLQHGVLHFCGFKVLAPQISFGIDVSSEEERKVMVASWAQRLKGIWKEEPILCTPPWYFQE
Procedure: The QR2 experiments were performed in membrane homogenates of hamster brains (https://www.eurofins.fr, catalog ref. 0088). […] First, radioligand displacement was measured at a fixed compound concentration (10 μM) in each receptor.

[1] = system: NRF2-ARE signaling pathway; experiment: cells; format: cell-based; conditions: for NRF2 (CD, μM): concentration required to double luciferase activity, AREc32 cells, 24 h; for EC (2-fold induction): Arec32, 24 h, read-out: NRF2 (CD, μM), concentration required to double luciferase activity, AREc32 cells, 24 h
Procedure: AREc32 cells were plated in 96-well white plates (2 × 10^4 cells/well). […]. The AREc32 cells constitutively express the plasmid pGL-8xARE that implements eight copies of the EpRE sequences, followed by the luciferase reporter gene. Therefore, NRF2 induction is related to the activation of EpRE sequences, expressing luciferase at the same extent as EpRE sequences are activated. The Luciferase Assay System (Promega E1500) was used according to the provider’s protocol, and luminescence was quantified in an Orion II microplate luminometer (Berthold, Germany). Fold induction of luciferase activity was normalized to basal conditions. Data are expressed as CD values, expressing the concentration required to double the luciferase activity. CD values were calculated from dose–response curves generated from the fold induction of control conditions versus inducer concentration and fitted by nonlinear regression and data interpolated to twofold induction concentration.[68]

[2] = Oxygen radical absorbance capacity (ORAC-FL) assay; conditions: trolox = 1.0
Procedure: 2,2′-Azobis-(amidinopropane) dihydrochloride (AAPH), trolox, and fluorescein (FL) were purchased from Sigma-Aldrich. The reaction was carried out in a 75 mM phosphate buffer (pH 7.4), and the final reaction mixture was 200 μL. […] Antioxidant curves (fluorescence vs time) were first normalized to the curve of the blank corresponding to the same assay, and the area under the curve (AUC) of fluorescence decay was calculated. The net AUC corresponding to a sample was calculated by subtracting the AUC corresponding to the blank. Regression equations between the net AUC and antioxidant concentration were calculated for all the samples.

in vitro = in vitro ADME; conditions: for Papp at 240 min, 100 μg mL^–1: PAMPA, pH 7.4, class from PAMPA-BBB Pe, read-out: CNS-permeability prediction; for PAMPA-BBB (Pe, 10^–6 cm s^–1): porcine brain lipid, PBS/EtOH (70:30), 240 min, 25 °C
hMAO-B = biological target: T2, hMAO-B (Homo sapiens, UniProt P27338); experiment: biochemical; conditions: for IC50: read-out: hMAO-B (IC50), recombinant hMAO-B, p-tyramine substrate; for inhibition at 50 µM: read-out: hMAO-B percentage of inhibition (in brackets)
T2 sequence (P27338 1-520): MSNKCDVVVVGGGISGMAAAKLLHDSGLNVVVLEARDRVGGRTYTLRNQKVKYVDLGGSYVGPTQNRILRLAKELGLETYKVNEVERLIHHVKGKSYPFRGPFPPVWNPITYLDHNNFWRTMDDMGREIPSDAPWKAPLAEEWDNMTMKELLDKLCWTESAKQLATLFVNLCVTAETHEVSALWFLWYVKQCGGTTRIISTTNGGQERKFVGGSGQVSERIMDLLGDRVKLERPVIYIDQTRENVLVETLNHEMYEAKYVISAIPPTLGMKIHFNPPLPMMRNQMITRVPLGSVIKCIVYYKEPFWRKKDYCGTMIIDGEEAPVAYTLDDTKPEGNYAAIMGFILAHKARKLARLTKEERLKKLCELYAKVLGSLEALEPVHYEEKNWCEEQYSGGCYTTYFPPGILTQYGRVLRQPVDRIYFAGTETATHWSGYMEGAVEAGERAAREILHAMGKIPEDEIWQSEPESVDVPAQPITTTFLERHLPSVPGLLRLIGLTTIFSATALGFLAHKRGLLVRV
Procedure: (§1) The hMAO-A/B inhibition of all compounds was determined using the Amplex Red MAO assay kit.
(§2) Assays were performed following the general procedure previously described.[98] […] The specific fluorescence emission was calculated after subtracting the background activity, which was determined from wells containing all components except the hMAO isoforms, which were replaced with PBS.

hMAO-A = biological target: T3, hMAO-A (Homo sapiens, UniProt P21397); experiment: biochemical; conditions: for IC50: read-out: hMAO-A (IC50), recombinant hMAO-A, p-tyramine substrate
T3 sequence (P21397 1-527): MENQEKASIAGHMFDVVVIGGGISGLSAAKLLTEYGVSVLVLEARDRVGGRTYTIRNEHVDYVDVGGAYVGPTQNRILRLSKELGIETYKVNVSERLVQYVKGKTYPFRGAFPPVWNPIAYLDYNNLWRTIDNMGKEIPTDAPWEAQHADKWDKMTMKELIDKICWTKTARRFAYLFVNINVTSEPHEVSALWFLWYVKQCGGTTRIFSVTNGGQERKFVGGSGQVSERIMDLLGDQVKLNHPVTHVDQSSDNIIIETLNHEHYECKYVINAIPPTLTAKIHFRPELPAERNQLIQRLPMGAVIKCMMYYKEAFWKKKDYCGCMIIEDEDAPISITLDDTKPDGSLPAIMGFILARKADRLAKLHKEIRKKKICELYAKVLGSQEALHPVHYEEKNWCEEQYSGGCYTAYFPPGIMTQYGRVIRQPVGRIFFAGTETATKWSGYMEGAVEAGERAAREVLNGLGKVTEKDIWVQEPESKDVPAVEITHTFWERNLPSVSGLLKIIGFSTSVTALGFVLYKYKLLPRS
Procedure: as §1, §2

adult mice NSCs = experiment: Neurogenic studies in SGZ-derived neurospheres; format: cell-based, mouse; conditions: 10 μM
Procedure: Adult mice NSCs were isolated from SGZ of the dentate gyrus of the hippocampus and grown as free-floating neurospheres (NS).[72],[78] The neurogenic potential of each compound was determined using fluorescence confocal microscopy by quantifying the expression of two well-known neuronal markers: human β-III-tubulin (TuJ-1 clone) and microtubule-associated protein 2 (MAP-2). TuJ-1 is expressed in immature neurons, whereas the expression of MAP-2 indicates a consolidated mature neuronal stage.[79] Given that neurogenesis involves not only the proliferation of NSC but also the migration of newly generated cells, the greatest migration distance promoted by each compound was also measured (Figure 8).
Adult male C57BL/6 mice (3 months old) were used in order to determine neurogenesis activity. […] DAPI staining was used as a nuclear marker. Fluorescent representative images were acquired with a Nikon fluorescence microscope 90i coupled to a digital camera Qi. The microscope configuration was adjusted to produce the optimum signal-to-noise ratio. […] Quantification was undertaken using the image analySIS software (Soft Imaging System Corp., Münster, Germany) and normalized to total nuclei (DAPI-stained). The intensity of immunostaining of neurites from TuJ1-labeled cells and the number of MAP-2-positive cells were estimated from nine neurospheres per condition over three independent experiments. The outgrowth of the neurosphere cells was examined under a phase-contrast microscope and the farthest distance of cell migration was calculated from the edge of the sphere. At least 10 plated neurospheres per treatment were analyzed.

[3] = system: rat primary cortical neurons; experiment: Neuroprotection against OA-induced toxicity in rat primary cortical neuronal cultures (MTT); conditions: compound 1 μM, OA 10 nM

Structure (SMILES): C#CCn1nc(/C=C/c2cccc(O)c2)oc1=O [5l, 5-[(E)-2-(3-Hydroxyphenyl)ethenyl]-3-(prop-2-yn-1-yl)-1,3,4-oxadiazol-2(3H)-one]
- IC50 (QR2): 2.5 ± 0.12 µM
- NRF2 (CD, μM) [1]: 8.05 ± 1.41 µM
- ORAC (trolox equiv) [2]: 2.7 ± 0.2 trolox equiv
- Papp at 240 min, 100 μg mL^–1 (in vitro): > 4 ×10⁻⁶ cm/s
- PAMPA-BBB (Pe, 10^–6 cm s^–1) (in vitro): 4.7 10^–6 cm s^–1 and 4.7 ± 0.2 10^–6 cm s^–1
- IC50 (hMAO-B): 3.53 ± 0.15 µM
- IC50 (hMAO-A): > 50 µM

Structure (SMILES): O=c1[nH]nc(/C=C/c2cccc([N+](=O)[O-])c2)o1 [2c, 5-[(E)-2-(3-Nitrophenyl)ethenyl]-1,3,4-oxadiazol-2(3H)-one]
- IC50 (QR2): ~10 µM
- inhibition at 10 µM (QR2): 56%
- NRF2 (CD, μM) [1]: 8.42 ± 0.82 µM
- ORAC (trolox equiv) [2]: <0.1 trolox equiv
- Papp at 240 min, 100 μg mL^–1 (in vitro): > 4 ×10⁻⁶ cm/s
- PAMPA-BBB (Pe, 10^–6 cm s^–1) (in vitro): 4.7 ± 0.2 10^–6 cm s^–1
- TuJ-1 and MAP-2 marked cells (adult mice NSCs): clearly increased
- cell migration distance (adult mice NSCs): extended
- IC50 (hMAO-B): 1.06 ± 0.22 µM
- IC50 (hMAO-A): > 50 µM

Structure (SMILES): C#CCNC/C=C/c1ccc(O)c(OC)c1 [8n, 2-Methoxy-4-{(1E)-3-[(prop-2-yn-1-yl)amino]prop-1-en-1-yl}phenol]
- IC50 (QR2): 0.2 ± 0.04 µM
- NRF2 (CD, μM) [1]: 22.3 ± 2.9 µM
- ORAC (trolox equiv) [2]: 2.1 ± 0.2 trolox equiv
- Papp at 240 min, 100 μg mL^–1 (in vitro): > 4 ×10⁻⁶ cm/s
- PAMPA-BBB (Pe, 10^–6 cm s^–1) (in vitro): 8.7 10^–6 cm s^–1 and 8.7 ± 0.6 10^–6 cm s^–1
- IC50 (hMAO-B): > 50 µM
- inhibition at 50 µM (hMAO-B): 45%
- IC50 (hMAO-A): 30.3 ± 2.5 µM

Structure (SMILES): C#CCNC(=O)/C=C/c1ccc(O)c(O)c1 [6o, (2E)-3-(3,4-Dihydroxyphenyl)-N-(prop-2-yn-1-yl)prop-2-enamide]
- NRF2 (CD, μM) [1]: 19.2 ± 3.7 µM
- neuroprotection against OA-induced toxicity [3]: slightly higher neuroprotection profile than resveratrol
- ORAC (trolox equiv) [2]: 1.9 ± 0.1 trolox equiv
- Papp at 240 min, 100 μg mL^–1 (in vitro): < 2 ×10⁻⁶ cm/s
- PAMPA-BBB (Pe, 10^–6 cm s^–1) (in vitro): ≤ 0.4 10^–6 cm s^–1
- IC50 (hMAO-B): > 50 µM
- inhibition at 50 µM (hMAO-B): 48%
- IC50 (hMAO-A): 47 ± 0.9 µM

Structure (SMILES): O=c1[nH]nc(/C=C/c2ccc(O)cc2)o1 [3m, 5-[(E)-2-(4-Hydroxyphenyl)ethenyl]-1,3,4-oxadiazol-2(3H)-one]
- neuroprotection against OA-induced toxicity [3]: not able to significantly reduce neuronal death
- ORAC (trolox equiv) [2]: 3.2 ± 0.1 trolox equiv
- Papp at 240 min, 100 μg mL^–1 (in vitro): < 2 ×10⁻⁶ cm/s
- PAMPA-BBB (Pe, 10^–6 cm s^–1) (in vitro): ≤ 0.7 10^–6 cm s^–1
- IC50 (hMAO-B): 35.7 ± 3 µM
- IC50 (hMAO-A): 41.5 ± 3.4 µM

Structure (SMILES): COc1ccc(/C=C/c2n[nH]c(=O)o2)cc1 [2e, 5-[(E)-2-(4-Methoxyphenyl)ethenyl]-1,3,4-oxadiazol-2(3H)-one]
- IC50 (QR2): ~10 µM
- inhibition at 10 µM (QR2): 68%
- EC (2-fold induction) [1]: > 60 µM
- ORAC (trolox equiv) [2]: <0.1 trolox equiv
- Papp at 240 min, 100 μg mL^–1 (in vitro): > 4 ×10⁻⁶ cm/s
- PAMPA-BBB (Pe, 10^–6 cm s^–1) (in vitro): 6.5 ± 0.5 10^–6 cm s^–1
- IC50 (hMAO-B): > 50 µM
- inhibition at 50 µM (hMAO-B): 42%
- IC50 (hMAO-A): > 50 µM

Structure (SMILES): COc1cc(/C=C/c2n[nH]c(=O)o2)cc(OC)c1 [2j, 5-[(E)-2-(3,5-Dimethoxyphenyl)ethenyl]-1,3,4-oxadiazol-2(3H)-one]
- IC50 (QR2): 0.51 ± 0.05 µM
- ORAC (trolox equiv) [2]: <0.1 trolox equiv
- Papp at 240 min, 100 μg mL^–1 (in vitro): 2 to 4 ×10⁻⁶ cm/s
- PAMPA-BBB (Pe, 10^–6 cm s^–1) (in vitro): 2.1 ± 0.2 10^–6 cm s^–1
- IC50 (hMAO-B): > 50 µM
- IC50 (hMAO-A): > 50 µM

Structure (SMILES): COc1cccc(/C=C/c2n[nH]c(=O)o2)c1 [2d, 5-[(E)-2-(3-Methoxyphenyl)ethenyl]-1,3,4-oxadiazol-2(3H)-one]
- IC50 (QR2): ~10 µM
- inhibition at 10 µM (QR2): 76%
- EC (2-fold induction) [1]: > 60 µM
- ORAC (trolox equiv) [2]: <0.1 trolox equiv
- Papp at 240 min, 100 μg mL^–1 (in vitro): > 4 ×10⁻⁶ cm/s
- PAMPA-BBB (Pe, 10^–6 cm s^–1) (in vitro): 4.6 ± 0.2 10^–6 cm s^–1
- TuJ-1 and MAP-2 marked cells (adult mice NSCs): clearly increased
- cell migration distance (adult mice NSCs): extended
- IC50 (hMAO-B): > 50 µM
- inhibition at 50 µM (hMAO-B): 33%
- IC50 (hMAO-A): > 50 µM
- inhibition at 50 µM (hMAO-A; read-out: hMAO-A percentage of inhibition (in brackets)): 24%
